A short description of data set [1]: Dermal toxicity of pesticidal formulations in male rats. Conditions: rat, in vivo, topical or ocular, male Wistar rats, 24 hours contact, observed 14 days. On the procedure:
Five male Wistar rats weighing approximately 209 to 277 g are selected for each dosage level. The hair is shaved from the ventral surface of the abdomen.
Granular material for evaluation is mixed with an equal weight of water on an aluminum foil backed with a plastic adhesive strapping. This preparation is then applied to the shaven ventral surface of the animal and fastened in place with adhesive strapping. After a contact time of 24 hours, the strapping is removed and the skin is washed with soap and water. The animals are then observed for 14 days for skin irritation or mortality. After this observation period, the animals are sacrificed and weighed.
Dermal LD50 values (mg/kg body weight) are calculated from experimental data for the compositions evaluated. The LD50 values obtained are averaged. […] Compositions A and B of Table III are as defined in Table I.

The nature of data set [2]: Dermal toxicity of pesticidal formulations in male albino rabbits. As to conditions: rabbit, in vivo, topical or ocular, 24 hours contact, observed 14 days. An excerpt:
Five male albino rabbits weighing approximately 2.2 to 3.5 kilograms are selected for each dosage level. The hair is shaved from the entire trunk.
The following materials are used in dermal toxicity tests: • (a.) Saran tubing or "vinylite" film VU 1900, 30.5 cm (12") wide, 0.04 millimeter in thickness, and long enough to fit around the rabbit; (b.) Felt cloth bandages measuring approximately 22.9 x 45.7 cm (9" x 18"); (c.) pieces of 3.8 cm (1.5") adhesive tape approximately 35.6 cm (14") long.
Granular material to be evaluated is placed in the center of the plastic film and is moistened with water. The rabbits' underside is then moistened with water, and the animals are placed, belly down, on. the material. The plastic is then brought up and around the animal and secured at each end with strips of adhesive tape. The felt cloth is then placed under the belly and brought up and around the animal and secured to the body with the remaining two strips of adhesive tape. The "cuff" is removed from the test animals 24 hours after dosing, and any remaining material is brushed away. If the test material cannot be removed, the animal is fitted with a fiber collar which prevents the animal from licking the treatment area. […]
The dermal LD50 values (mg/kg/ body weight) are. calculated for experimental data for the compositions evaluated. […]

SMILES strings stand for the structures.

As usually defined, the LD50 is the dose expected to kill half of the subjects tested. Read a high LD50 as a less toxic substance. Regarding `CCOP(=S)(OCC)SCSC(C)(C)C` [O,O-diethyl S-{[(1,1-dimethylethyl)-thio]methyl}phosphorodithioate], the LD50 at 336 h in data set [1] and in data set [2] was 1 to 2 mg/kg in each case.

The values are drawn from patent EP0111112A1, “Granular pesticidal compositions coated with hydrophobic solids with attendant reduced dermal toxicity” (priority 1982, dated 1984).
